Earlier results, collected in patent publication US20240165081A1, “COMPOSITIONS AND METHODS FOR TREATMENT OF INSOMNIA” (priority 2022, published 2024).

Target: adenosine A2A receptor (Homo sapiens, UniProt P29274)
Sequence (P29274 whole entry): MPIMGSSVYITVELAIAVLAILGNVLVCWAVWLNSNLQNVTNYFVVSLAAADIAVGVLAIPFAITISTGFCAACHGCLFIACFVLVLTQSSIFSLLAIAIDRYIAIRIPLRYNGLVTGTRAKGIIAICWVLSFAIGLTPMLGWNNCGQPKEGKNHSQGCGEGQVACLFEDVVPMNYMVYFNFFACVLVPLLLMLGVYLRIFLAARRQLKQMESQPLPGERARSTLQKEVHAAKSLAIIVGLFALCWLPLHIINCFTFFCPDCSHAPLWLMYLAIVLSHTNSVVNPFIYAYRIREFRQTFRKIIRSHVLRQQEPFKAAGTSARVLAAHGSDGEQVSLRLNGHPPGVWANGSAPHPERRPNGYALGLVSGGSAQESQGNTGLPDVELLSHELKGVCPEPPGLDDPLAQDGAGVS

SMILES: C=C(C)C1CC=C(C)CC1 [D-limonene, 4-isopropenyl-1-methylcyclohexene]
- binding to the adenosine A2A receptor: found to bind to the adenosine A2A receptor
